Data reported in PubChem BioAssay (NCI).
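Assay format: 96-well plates, 48-hour exposure. The concentration for full growth arrest is given as TGI.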

Assays:
Experiment in all cases: NCI anticancer screen, dose series, 48 h
786-0 renal = tested on: 786-0 renal
A498 renal = tested on: A498 renal
A549 NSCLC = tested on: A549 NSCLC
ACHN renal = tested on: ACHN renal
BT-549 breast = tested on: BT-549 breast
CAKI-1 renal = tested on: CAKI-1 renal
CCRF-CEM leukemia = tested on: CCRF-CEM leukemia
COLO 205 colon = tested on: COLO 205 colon
DU-145 prostate = tested on: DU-145 prostate
HCT-116 colon = tested on: HCT-116 colon
HCT-15 colon = tested on: HCT-15 colon
HL-60(TB) leukemia = tested on: HL-60(TB) leukemia
HOP-62 NSCLC = tested on: HOP-62 NSCLC
HS 578T breast = tested on: HS 578T breast
HT29 colon = tested on: HT29 colon
IGROV1 ovarian = tested on: IGROV1 ovarian
K-562 leukemia = tested on: K-562 leukemia
KM12 colon = tested on: KM12 colon
LOX IMVI melanoma = tested on: LOX IMVI melanoma
M14 melanoma = tested on: M14 melanoma
MALME-3M melanoma = tested on: MALME-3M melanoma
MCF7 breast = tested on: MCF7 breast
MDA-MB-231 breast = tested on: MDA-MB-231 breast
MDA-MB-435 = tested on: MDA-MB-435
MDA-N = tested on: MDA-N
MOLT-4 leukemia = tested on: MOLT-4 leukemia
NCI-H226 lung = tested on: NCI-H226 lung
NCI-H23 lung = tested on: NCI-H23 lung
NCI-H460 lung = tested on: NCI-H460 lung
NCI-H522 lung = tested on: NCI-H522 lung
NCI/ADR-RES ovarian = tested on: NCI/ADR-RES ovarian
OVCAR-3 ovarian = tested on: OVCAR-3 ovarian
OVCAR-5 ovarian = tested on: OVCAR-5 ovarian
OVCAR-8 ovarian = tested on: OVCAR-8 ovarian
PC-3 prostate = tested on: PC-3 prostate
RPMI-8226 leukemia = tested on: RPMI-8226 leukemia
RXF 393 renal = tested on: RXF 393 renal
SF-268 CNS = tested on: SF-268 CNS
SF-295 CNS = tested on: SF-295 CNS
SF-539 CNS = tested on: SF-539 CNS
SK-MEL-2 melanoma = tested on: SK-MEL-2 melanoma
SK-MEL-28 melanoma = tested on: SK-MEL-28 melanoma
SK-MEL-5 melanoma = tested on: SK-MEL-5 melanoma
SK-OV-3 ovarian = tested on: SK-OV-3 ovarian
SN12C renal = tested on: SN12C renal
SNB-19 CNS = tested on: SNB-19 CNS
SNB-75 CNS = tested on: SNB-75 CNS
SR leukemia = tested on: SR leukemia
SW-620 colon = tested on: SW-620 colon
T-47D breast = tested on: T-47D breast
TK-10 renal = tested on: TK-10 renal
U251 CNS = tested on: U251 CNS
UACC-257 melanoma = tested on: UACC-257 melanoma
UACC-62 melanoma = tested on: UACC-62 melanoma
UO-31 renal = tested on: UO-31 renal
EKVX NSCLC = tested on: EKVX NSCLC
HCC-2998 colon = tested on: HCC-2998 colon
HOP-92 NSCLC = tested on: HOP-92 NSCLC
OVCAR-4 ovarian = tested on: OVCAR-4 ovarian

Work on CN1CN(c2ccccc2)C2(CCN(C3Nc4ccccc4O3)CC2)C1=O (centres undefined) yielded a TGI (786-0 renal) of 49.6 µM, a TGI (A498 renal) of 42.1 µM and a TGI (A549 NSCLC) of over 100 µM. For the same compound, the TGI (ACHN renal) was 55.9 µM, the TGI (BT-549 breast) was 37.3 µM and the TGI (CAKI-1 renal) was over 100 µM. For the same compound, the TGI (CCRF-CEM leukemia) was 57.6 µM, the TGI (COLO 205 colon) was 30.1 µM and the TGI (DU-145 prostate) was 60.1 µM. The TGI (HCT-116 colon) was 29.8 µM, the TGI (HCT-15 colon) was 28.8 µM and the TGI (HL-60(TB) leukemia) was 43.5 µM. It also gave a TGI (HOP-62 NSCLC) of 31.1 µM, a TGI (HS 578T breast) of 37.7 µM and a TGI (HT29 colon) of 33 µM. It also gave a TGI (IGROV1 ovarian) of 58.5 µM, a TGI (K-562 leukemia) of over 100 µM and a TGI (KM12 colon) of 51.5 µM. The TGI (LOX IMVI melanoma) was 26.8 µM, the TGI (M14 melanoma) was 46.2 µM and the TGI (MALME-3M melanoma) was 38 µM. It also gave a TGI (MCF7 breast) of 38.6 µM, a TGI (MDA-MB-231 breast) of 44.6 µM and a TGI (MDA-MB-435) of 42.1 µM. The TGI (MDA-N) was 49.1 µM, the TGI (MOLT-4 leukemia) was 92.2 µM and the TGI (NCI-H226 lung) was 50.3 µM. It also gave a TGI (NCI-H23 lung) of 54.9 µM, a TGI (NCI-H460 lung) of 43.9 µM and a TGI (NCI-H522 lung) of 39.2 µM. The TGI (NCI/ADR-RES ovarian) was 56.1 µM, the TGI (OVCAR-3 ovarian) was 31.7 µM and the TGI (OVCAR-5 ovarian) was 48.2 µM. For the same compound, the TGI (OVCAR-8 ovarian) was 82.1 µM, the TGI (PC-3 prostate) was 45.2 µM and the TGI (RPMI-8226 leukemia) was 58 µM. For the same compound, the TGI (RXF 393 renal) was 35.5 µM, the TGI (SF-268 CNS) was 61 µM and the TGI (SF-295 CNS) was 33.6 µM. For the same compound, the TGI (SF-539 CNS) was 28.9 µM, the TGI (SK-MEL-2 melanoma) was 28.3 µM and the TGI (SK-MEL-28 melanoma) was 47.2 µM. For the same compound, the TGI (SK-MEL-5 melanoma) was 32 µM, the TGI (SK-OV-3 ovarian) was 48.1 µM and the TGI (SN12C renal) was 34.7 µM. It also gave a TGI (SNB-19 CNS) of 74.4 µM, a TGI (SNB-75 CNS) of 62.3 µM and a TGI (SR leukemia) of over 100 µM. It also gave a TGI (SW-620 colon) of over 100 µM, a TGI (T-47D breast) of 58.8 µM and a TGI (TK-10 renal) of 46.3 µM. For the same compound, the TGI (U251 CNS) was 33.3 µM, the TGI (UACC-257 melanoma) was 33.7 µM and the TGI (UACC-62 melanoma) was 31 µM. For the same compound, the TGI (UO-31 renal) was 69.8 µM.
For COC(=O)[C@H](C)NC(=O)C1(CNC(=O)[C@H](C)NC(=O)OC(C)(C)C)Cc2ccccc2-c2ccccc2C1, the TGI (786-0 renal) was 36.4 µM, the TGI (A498 renal) was over 71.1 µM and the TGI (A549 NSCLC) was 48.8 µM. For the same compound, the TGI (ACHN renal) was over 57.7 µM, the TGI (BT-549 breast) was over 70.3 µM and the TGI (CAKI-1 renal) was over 39.6 µM. It also gave a TGI (CCRF-CEM leukemia) of 43.9 µM, a TGI (COLO 205 colon) of 53.9 µM and a TGI (DU-145 prostate) of over 42.7 µM. The TGI (EKVX NSCLC) was 47 µM, the TGI (HCC-2998 colon) was over 59.8 µM and the TGI (HCT-116 colon) was over 54.1 µM. It also gave a TGI (HCT-15 colon) of 31.1 µM, a TGI (HL-60(TB) leukemia) of 39.5 µM and a TGI (HOP-62 NSCLC) of over 100 µM. It also gave a TGI (HOP-92 NSCLC) of 21.2 µM, a TGI (HS 578T breast) of over 60.1 µM and a TGI (HT29 colon) of 39.8 µM. For the same compound, the TGI (IGROV1 ovarian) was 33.2 µM, the TGI (K-562 leukemia) was 54 µM and the TGI (KM12 colon) was 40.2 µM. The TGI (LOX IMVI melanoma) was 9.13 µM, the TGI (M14 melanoma) was over 78.5 µM and the TGI (MALME-3M melanoma) was 36.1 µM. The TGI (MCF7 breast) was over 84.3 µM, the TGI (MDA-MB-231 breast) was 35.4 µM and the TGI (MDA-MB-435) was 38.2 µM. For the same compound, the TGI (MDA-N) was over 58.5 µM, the TGI (MOLT-4 leukemia) was 37.6 µM and the TGI (NCI-H226 lung) was 61.5 µM. For the same compound, the TGI (NCI-H23 lung) was 37.8 µM, the TGI (NCI-H460 lung) was 42.9 µM and the TGI (NCI-H522 lung) was 20.8 µM. For the same compound, the TGI (NCI/ADR-RES ovarian) was 41.4 µM, the TGI (OVCAR-3 ovarian) was 49.6 µM and the TGI (OVCAR-4 ovarian) was over 63.5 µM. The TGI (OVCAR-5 ovarian) was 41.1 µM, the TGI (OVCAR-8 ovarian) was 18.2 µM and the TGI (PC-3 prostate) was over 75.4 µM. It also gave a TGI (RPMI-8226 leukemia) of 23.9 µM, a TGI (RXF 393 renal) of over 88.9 µM and a TGI (SF-268 CNS) of 52.5 µM. It also gave a TGI (SF-295 CNS) of 51.6 µM, a TGI (SF-539 CNS) of over 58.1 µM and a TGI (SK-MEL-2 melanoma) of over 68.9 µM. It also gave a TGI (SK-MEL-28 melanoma) of over 70.6 µM, a TGI (SK-MEL-5 melanoma) of over 55 µM and a TGI (SK-OV-3 ovarian) of over 100 µM. For the same compound, the TGI (SN12C renal) was 34.6 µM, the TGI (SNB-19 CNS) was over 100 µM and the TGI (SNB-75 CNS) was over 60.2 µM. The TGI (SR leukemia) was 43.4 µM, the TGI (SW-620 colon) was over 64.3 µM and the TGI (T-47D breast) was over 62 µM. It also gave a TGI (TK-10 renal) of over 59.2 µM, a TGI (U251 CNS) of 36.5 µM and a TGI (UACC-257 melanoma) of over 78.9 µM. It also gave a TGI (UACC-62 melanoma) of 34 µM and a TGI (UO-31 renal) of 11.6 µM.
